According to patent publication US20190358343A1, “ADOPTIVE TRANSFER OF CAR T CELLS WITH SURFACE-CONJUGATED DRUG-LOADED NANOPARTICLES AND USES THEREOF” (University of Southern California, priority 2017, published 2019):
Read-outs that look alike come from different tables or passages of the source.

Columns and labels:
[1] = cited from earlier work
adenosine receptor A2A = adenosine receptor A2A (Homo sapiens, UniProt P29274); settings: cited from earlier work
[2] = system: tumor cells (SKOV3-CD19+); experiment: In vitro XTT assay; format: cell-based, human
Text: (§1) Based on the procedure of nanoparticle-cell surface conjugation developed in Stephen et al (2010), we pioneered the utilization of CAR engineered human PBMCs as therapeutic cells that have nanoparticles conjugated to the surface. The nanoparticles encapsulate small molecule inhibitors of the A2a receptor, e.g., SCH 58261, which is highly hydrophobic and is generally unsuitable for systemic infusion. […] Therefore, SCH 58261 is a suitable drug to illustrate the advantage of this T cell-nanoparticle cargo system for the purposes of enhancing CAR T cell therapy by co-delivering therapeutic cells and adjuvant in the same unit. Compare with other compositions or systems to block the A2aR pathway, such as genetically engineering CAR-T cells with the CRISPR/Cas system or receptor siRNA knock down, a major advantage of presently disclosed composition and method is the ability of the drug to affect endogenous T cells and circulating CAR-T cells, as well as the carrier CAR-T cells themselves.

PBMCs = experiment: In vitro XTT assay; format: cell-based, human
Text: as §1

Chain of adenosine receptor A2A (P29274 whole entry, species assumed): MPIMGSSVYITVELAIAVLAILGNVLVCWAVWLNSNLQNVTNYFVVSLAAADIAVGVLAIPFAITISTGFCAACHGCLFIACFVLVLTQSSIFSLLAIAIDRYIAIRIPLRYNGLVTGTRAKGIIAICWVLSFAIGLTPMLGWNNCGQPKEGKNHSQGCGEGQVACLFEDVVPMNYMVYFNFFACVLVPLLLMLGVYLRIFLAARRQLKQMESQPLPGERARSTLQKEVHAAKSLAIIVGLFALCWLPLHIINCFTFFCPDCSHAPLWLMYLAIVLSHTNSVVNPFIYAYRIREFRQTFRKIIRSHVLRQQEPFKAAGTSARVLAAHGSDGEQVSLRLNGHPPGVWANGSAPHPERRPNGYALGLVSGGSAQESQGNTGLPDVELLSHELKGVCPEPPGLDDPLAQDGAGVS

SMILES: Nc1nc2c(cnn2CCc2ccccc2)c2nc(-c3ccco3)nn12 [SCH-58261]
- solubility [1]: poor solubility
- selectivity for A2A over other adenosine receptors (adenosine receptor A2A): more than 50 times
- cytotoxic effects [2]: does not have cytotoxic effects
- cytotoxic effects ([2]; listed as SCH): not directly affected
- cytotoxic effects (PBMCs): does not have cytotoxic effects
